Data as given in ChEMBL document CHEMBL3507680, “University of Dundee, Gates Library screen for HepG2 cell viability”.

Assay: Human HepG2 cell viability assay in 384 well format
Assay type: toxicity, cell-based
Design: dose 125 nL, time 70.5 hour; concentration not given beside the values
Conditions: HepG2 cells, read-out: Inhibition

With `Cc1ccc(C(N)c2cccs2)cc1` (stereo not given) the cytotoxicity at 70.5 h was 31.8%.
In the case of `COC(=O)c1ccc(CNC(=O)Nc2ccc(=O)n(C)c2)cc1`, the cytotoxicity at 70.5 h is reported as -2.19%.
Molecule `CN(Cc1ccsc1)C(=O)Nc1ccc(=O)n(C)c1` has a cytotoxicity at 70.5 h of -6.48%.
In the case of `Cc1nn(C(C)C)c(C)c1S(=O)(=O)Nc1cccc(C(=O)O)c1`, the cytotoxicity at 70.5 h is reported as -5.93%.
Molecule `Cc1nn(C(C)C)c(C)c1S(=O)(=O)Nc1cccc(F)c1` has a cytotoxicity at 70.5 h of -0.473%.
In the case of `O=C(NS(=O)(=O)c1ccc2c(c1)CCC2)C1COCCO1` (stereo not given), the cytotoxicity at 70.5 h is reported as 26.8%.
Work on `CSc1ccsc1C(=O)NC(C)c1ccc2c(c1)CCC(=O)N2` (stereo not given) yielded a cytotoxicity at 70.5 h of 11.2%.
`CCCNC(=O)c1cc(Br)cc(S(=O)(=O)N2CCOCC2)c1F` gave a cytotoxicity at 70.5 h of -0.419%.
For `Cn1cc(NC(=O)c2cccc(Cl)c2)c(=O)n(C)c1=O`, the cytotoxicity at 70.5 h was 24%.
With `Cc1nn(C(C)C)c(C)c1S(=O)(=O)Nc1ccc(C(=O)O)cc1` the cytotoxicity at 70.5 h was -1.04%.
`O=S(=O)(NCC1COCCO1)c1ccc(C2CCCCC2)cc1` (stereo not given) gave a cytotoxicity at 70.5 h of -4.34%.
For `CCn1cc(S(=O)(=O)NC(CO)Cc2ccccc2)cn1` (stereo not given), the cytotoxicity at 70.5 h was -7.27%.
For `O=S1(=O)CCC(n2cc(CNc3ccccc3Br)cn2)C1` (stereo not given), the cytotoxicity at 70.5 h was 31.4%.
In the case of `Cc1cc2cc(CNC3CCN(CC(=O)N(C)C)CC3)oc2cc1C`, the cytotoxicity at 70.5 h is reported as -3.5%.
For `OC(COCc1ccccc1)CSc1nnc(C2CC2)n1C1CC1` (stereo not given), the cytotoxicity at 70.5 h was 0.33%.
With `CC(C)c1ccc(C(N)c2cccs2)cc1` (stereo not given) the cytotoxicity at 70.5 h was -5.3%.
`Cc1cc(F)ccc1-n1cc(O)c(C(=O)NCC[S+](C)[O-])n1` (stereo not given) showed a cytotoxicity at 70.5 h of 8.16%.
`CC(C)(C)n1nc(C2CC2)cc1C(=O)NC1CCN(CC(N)=O)CC1` showed a cytotoxicity at 70.5 h of -12.3%.
Work on `Cc1cc(C(=O)NC2CCN(CC(N)=O)CC2)nn1C(C)(C)C` yielded a cytotoxicity at 70.5 h of -18.9%.
Work on `CC(C)c1cc(C(=O)NC2CCN(CC(N)=O)CC2)nn1C(C)(C)C` yielded a cytotoxicity at 70.5 h of -10.3%.
In the case of `CC(CC(=O)NCCNS(C)(=O)=O)C1CCCCC1` (stereo not given), the cytotoxicity at 70.5 h is reported as -13.2%.
`Cc1ccc(C(=O)N2CCCN(C)c3ccc(F)cc32)o1` showed a cytotoxicity at 70.5 h of -17.9%.
For `Cc1cc(NC(=O)C2CCCN(C(=O)NCC(C)C)C2)ccn1` (stereo not given), the cytotoxicity at 70.5 h was -14.5%.
`Cc1cc(F)ccc1-n1cc(O)c(C(N)=O)n1` showed a cytotoxicity at 70.5 h of -19%.
With `CCNC(=O)CNC(=O)Nc1c(F)cc(F)cc1-c1ccccc1` the cytotoxicity at 70.5 h was -9.19%.
`CSCC(C)N(C)C(=O)c1nn(-c2ccc(F)cc2C)cc1O` (stereo not given) showed a cytotoxicity at 70.5 h of -10.1%.
Molecule `Cc1ccc(C)c(OC2CCN(C(=O)CNc3ccccc3Cl)CC2)c1` has a cytotoxicity at 70.5 h of 24.6%.
`CNC(=O)C1CCC(NC(=O)c2cc(C3CC3)n(C(C)(C)C)n2)CC1` (stereo not given) showed a cytotoxicity at 70.5 h of -6.36%.
For `CN1CCN(C(=O)c2cnsn2)c2ccc(F)cc21`, the cytotoxicity at 70.5 h was -10.4%.
In the case of `Cn1cc(C(O)CNC(=O)c2cc(Br)ccc2Cl)cn1` (stereo not given), the cytotoxicity at 70.5 h is reported as -14.2%.
For `c1cnc2nc(N3CCCC3c3nnc4n3CCCCC4)ccc2n1` (stereo not given), the cytotoxicity at 70.5 h was -4.33%.
In the case of `CC(Nc1cccc(COCc2ccco2)c1)C(=O)NC(N)=O` (stereo not given), the cytotoxicity at 70.5 h is reported as -23%.
Molecule `COc1ccc(Cn2ccnc2)cc1F` has a cytotoxicity at 70.5 h of -10.7%.
`CCC(=O)N(CCN(C)C)Cc1ccc(F)c(F)c1` gave a cytotoxicity at 70.5 h of -13.7%.
In the case of `Cc1nc2ccccc2nc1NCc1cccc(OCC2CCCO2)c1` (stereo not given), the cytotoxicity at 70.5 h is reported as 0.538%.
Work on `CN(C)C(=O)Cn1cc(C(=O)N2CCCc3cccc(F)c32)nn1` yielded a cytotoxicity at 70.5 h of -17.3%.
With `COc1ccccc1C1(CNc2ccnc(C(=O)N(C)C)c2)CC1` the cytotoxicity at 70.5 h was 33.4%.
`COc1ncnc(N)c1CNCC(C)SC` (stereo not given) showed a cytotoxicity at 70.5 h of 34.8%.
`COc1ccccc1C1(CNc2cc(C(=O)N(C)C)ccn2)CC1` showed a cytotoxicity at 70.5 h of 0.399%.
`CCCc1cc(N2CCCC2Cn2cc(C)cn2)n2ncnc2n1` (stereo not given) gave a cytotoxicity at 70.5 h of -8.77%.
`COCc1nc(CNC2CCCc3c2cnn3C(C)(C)C)cs1` (stereo not given) gave a cytotoxicity at 70.5 h of -6.43%.
Molecule `CC1CCN(C)c2ccccc2N1C(=O)c1ccc(=O)n(C)n1` (stereo not given) has a cytotoxicity at 70.5 h of -5.36%.
In the case of `COC(=O)c1ccc(N2CCC(C(O)c3ccccc3)CC2)nn1` (stereo not given), the cytotoxicity at 70.5 h is reported as -4.29%.
`O=S(=O)(c1ccc2c(c1)OCCO2)N1CCC(OCc2ccccn2)C1` (stereo not given) showed a cytotoxicity at 70.5 h of -8.08%.
In the case of `O=S(=O)(c1ccc(C(F)(F)F)cc1)N1CCC(OCc2ccccn2)C1` (stereo not given), the cytotoxicity at 70.5 h is reported as 1.24%.
`CC1CCN(C)c2ccccc2N1C(=O)c1ccc(=O)n(C)c1` (stereo not given) showed a cytotoxicity at 70.5 h of -6.14%.
For `CCC(C)(COc1ncccc1Cl)NCC(=O)NC1CCCCC1` (stereo not given), the cytotoxicity at 70.5 h was -14.9%.
Molecule `CCC1C(=O)NCCN1c1ccnc(C(C)(C)C)n1` (stereo not given) has a cytotoxicity at 70.5 h of -23.9%.
With `CCC1C(=O)NCCN1c1cc(C)ncn1` (stereo not given) the cytotoxicity at 70.5 h was -22.8%.
`CN(CCc1ccccn1)C(=O)C(O)c1ccc(Br)cc1` (stereo not given) showed a cytotoxicity at 70.5 h of -4.38%.
For `Cc1nc(NC(=O)NC(CS(C)(=O)=O)c2ccccc2)sc1C` (stereo not given), the cytotoxicity at 70.5 h was -11.5%.
Molecule `CC(C)c1nsc(N2CCCOCC2)n1` has a cytotoxicity at 70.5 h of 37.7%.
Work on `O=C(CN(CC(O)c1ccc(F)cc1)C1CC1)Nc1cccnc1` (stereo not given) yielded a cytotoxicity at 70.5 h of -24.7%.
With `CCNc1nc(C)c(C(=O)N(C)Cc2nc(CC)no2)s1` the cytotoxicity at 70.5 h was -34.8%.
`CC(C)n1cnnc1C1CCCN(S(=O)(=O)CCCC#N)C1` (stereo not given) gave a cytotoxicity at 70.5 h of -35.2%.
Molecule `COc1cccc(CN(C)C(=O)c2ccc(NC(C)=O)s2)c1OC` has a cytotoxicity at 70.5 h of -62.7%.
`CC(=O)Nc1ccc(C(=O)N(C)Cc2ccc(F)cc2F)s1` showed a cytotoxicity at 70.5 h of -61.6%.
Work on `COCC(O)CN(C)C(=O)NCc1ccc(S(C)(=O)=O)cc1` (stereo not given) yielded a cytotoxicity at 70.5 h of -106%.
In the case of `CCS(=O)(=O)NC(CCSC)C(=O)Nc1ccc(C)cc1C` (stereo not given), the cytotoxicity at 70.5 h is reported as -88.5%.
For `CCOC(=O)c1cnn(C2CCN(C(=O)CC3CCCC3)CC2)c1N`, the cytotoxicity at 70.5 h was -2.45%.
